Data taken from US10981894B2, “Melanocortin subtype-2 receptor (MC2R) antagonists and uses thereof” (Crinetics Pharmaceuticals, Inc., priority 2018, dated 2021).

Target: hMC2 receptor (Homo sapiens, UniProt Q01718)
Assay: hMC2 membrane binding assay ([125I]ACTH (1-39) Tyr23, SPA)
Set-up: scale not given here
Conditions: crude hMC2R membranes from CRE-bla-CHO-K1 cells expressing hMC2 receptor and hMRAP; [125I]ACTH (1-39) Tyr23 0.2 nM; 1.5 hours at room temperature; read-out: MC2R binding potency
Summary of the method: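 Ki comes from non-linear regression of SPA scintillation counts. Displacement of 0.2 nM [125I]ACTH(1-39) Tyr23 by compound dose series (usually 0–10,000 nM final) ran 1.5 h at room temperature. Membranes came from CHO-K1 CRE-bla cells stably expressing hMC2R plus hMRAP, bead-coupled in pH 7.4 buffer with 0.2% BSA.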

hMC2 receptor, sequence (Q01718 whole entry): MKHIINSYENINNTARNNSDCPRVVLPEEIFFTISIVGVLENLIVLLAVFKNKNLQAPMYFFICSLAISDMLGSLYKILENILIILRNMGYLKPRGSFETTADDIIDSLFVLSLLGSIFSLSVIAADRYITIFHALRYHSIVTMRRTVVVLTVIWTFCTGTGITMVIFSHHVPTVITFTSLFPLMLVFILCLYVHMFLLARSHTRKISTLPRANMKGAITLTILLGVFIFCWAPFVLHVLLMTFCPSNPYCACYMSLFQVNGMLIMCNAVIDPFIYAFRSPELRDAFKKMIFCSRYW
hMC2 receptor, sequence (Q8TCY5 whole entry partner): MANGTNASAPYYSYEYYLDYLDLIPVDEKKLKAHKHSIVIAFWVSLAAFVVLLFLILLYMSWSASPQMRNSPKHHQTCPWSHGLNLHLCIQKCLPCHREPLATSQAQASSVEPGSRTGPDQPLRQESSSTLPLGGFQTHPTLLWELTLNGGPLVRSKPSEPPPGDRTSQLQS

SMILES	Ki [µM]
CCOc1ncccc1-c1ccc(N2CCN(C(=O)N3CCC[C@H]3c3cccc(F)c3)C[C@H]2CC)c(C(=O)N[C@@H]2CCN(C)C2)n1 [Compound 1-381, 2′-ethoxy-5-[(2R)-2-ethyl-4-[(2S)-2-(3-fluorophenyl)pyrrolidine-1-carbonyl]piperazin-1-yl]-N-[(3R)-1-methylpyrrolidin-3-yl]-[2,3′-bipyridine]-6-carboxamide]	< 0.01
CCOc1ncccc1-c1ccc(N2CCN(C(=O)C3CCc4cccc(Cl)c43)C[C@H]2CC)c(C(=O)N[C@@H]2CCN(C)C2)n1 (stereo partly drawn) [Compound 1-382, 5-[(2R)-4-(7-chloro-2,3-dihydro-1H-indene-1-carbonyl)-2-ethylpiperazin-1-yl]-2′-ethoxy-N-[(3R)-1-methylpyrrolidin-3-yl]-[2,3′-bipyridine]-6-carboxamide]	< 0.01
CCOc1ncccc1-c1ccc(N2CCN(C(=O)N3CCc4cccc(C#N)c43)C[C@H]2CC)c(C(=O)N[C@@H]2CCN(C)C2)n1 [Compound 1-383, 5-[(2R)-4-(7-cyano-2,3-dihydro-1H-indole-1-carbonyl)-2-ethylpiperazin-1-yl]-2′-ethoxy-N-[(3R)-1-methylpyrrolidin-3-yl]-[2,3′-bipyridine]-6-carboxamide]	< 0.01
CCOc1ncccc1-c1ccc(N2CCN(C(=O)C34CCC(C(F)(F)F)(CC3)C4)C[C@H]2CC)c(C(=O)N[C@@H]2CCN(C)C2)n1 [Compound 1-385, 2′-ethoxy-5-[(2R)-2-ethyl-4-[4-(trifluoromethyl)bicyclo[2.2.1]heptane-1-carbonyl]piperazin-1-yl]-N-[(3R)-1-methylpyrrolidin-3-yl]-[2,3′-bipyridine]-6-carboxamide]	< 0.01
CCOc1ncccc1-c1ccc(N2CCN(C(=O)N3CCC[C@H]3C(F)(F)F)C[C@H]2CC)c(C(=O)NC[C@H]2CCN2C)n1 [Compound 1-386, 2′-ethoxy-5-[(2R)-2-ethyl-4-[(2S)-2-(trifluoromethyl)pyrrolidine-1-carbonyl]piperazin-1-yl]-N-{[(2R)-1-methylazetidin-2-yl]methyl}-[2,3′-bipyridine]-6-carboxamide]	0.01 to 0.1
CCOc1ccccc1-c1ccc(N2CCN(C(=O)N3CCC[C@H]3C(F)(F)F)C[C@H]2CC)c(C(=O)NC[C@@H]2CCN2C)n1 [Compound 1-387, 6-(2-ethoxyphenyl)-3-[(2R)-2-ethyl-4-[(2S)-2-(trifluoromethyl)pyrrolidine-1-carbonyl]piperazin-1-yl]-N-{[(2S)-1-methylazetidin-2-yl]methyl}pyridine-2-carboxamide]	< 0.01
CCOc1ccccc1-c1ccc(N2CCN(C(=O)C34CCC(C(F)(F)F)(CC3)C4)C[C@H]2CC)c(C(=O)N[C@@H]2CCN(C)C2)n1 [Compound 1-388, 6-(2-ethoxyphenyl)-3-[(2R)-2-ethyl-4-[4-(trifluoromethyl)bicyclo[2.2.1]heptane-1-carbonyl]piperazin-1-yl]-N-[(3R)-1-methylpyrrolidin-3-yl]pyridine-2-carboxamide]	< 0.01
CCOc1ncccc1-c1ccc(N2CCN(C(=O)N3CCc4cccc(C(F)(F)F)c43)C[C@H]2CC)c(C(=O)N[C@H]2CCN(C)C2)n1 [Compound 1-389, 2′-ethoxy-5-[(2R)-2-ethyl-4-[7-(trifluoromethyl)-2,3-dihydro-1H-indole-1-carbonyl]piperazin-1-yl]-N-[(3S)-1-methylpyrrolidin-3-yl]-[2,3′-bipyridine]-6-carboxamide]	< 0.01
CCOc1ncccc1-c1ccc(N2CCN(C(=O)C3(C(F)(F)F)CCC3)C[C@H]2CC)c(C(=O)NC[C@@H]2CCN2C)n1 [Compound 1-390, 2′-ethoxy-5-[(2R)-2-ethyl-4-[1-(trifluoromethyl)cyclobutanecarbonyl]piperazin-1-yl]-N-{[(2S)-1-methylazetidin-2-yl]methyl}-[2,3′-bipyridine]-6-carboxamide]	0.01 to 0.1
CCOc1ncccc1-c1ccc(N2CCN(C(=O)N3CCC[C@H]3C(F)(F)F)C[C@H]2CC)c(C(=O)NC[C@@H]2CCN2C)n1 [Compound 1-391, 2′-ethoxy-5-[(2R)-2-ethyl-4-[(2S)-2-(trifluoromethyl)pyrrolidine-1-carbonyl]piperazin-1-yl]-N-{[(2S)-1-methylazetidin-2-yl]methyl}-[2,3′-bipyridine]-6-carboxamide]	< 0.01
CCOc1ccccc1-c1ccc(N2CCN(C(=O)N3CCc4cccc(C#N)c43)C[C@H]2CC)c(C(=O)N[C@@H]2CCN(C)C2)n1 [Compound 1-393, 3-[(2R)-4-(7-cyano-2,3-dihydro-1H-indole-1-carbonyl)-2-ethylpiperazin-1-yl]-6-(2-ethoxyphenyl)-N-[(3R)-1-methylpyrrolidin-3-yl]pyridine-2-carboxamide]	< 0.01
CCOc1ncccc1-c1ccc(N2CCN(C(=O)C34CCC(C(F)(F)F)(CC3)C4)C[C@H]2CC)c(C(=O)NC2CN(C)C2)n1 [Compound 1-394, 2′-ethoxy-5-[(2R)-2-ethyl-4-[4-(trifluoromethyl)bicyclo[2.2.1]heptane-1-carbonyl]piperazin-1-yl]-N-(1-methylazetidin-3-yl)-[2,3′-bipyridine]-6-carboxamide]	< 0.01
CCOc1ncccc1-c1ccc(N2CCN(C(=O)C34CCC(C(F)(F)F)(CC3)C4)C[C@H]2CC)c(C(=O)NCC2CN(C)C2)n1 [Compound 1-395, 2′-ethoxy-5-[(2R)-2-ethyl-4-[4-(trifluoromethyl)bicyclo[2.2.1]heptane-1-carbonyl]piperazin-1-yl]-N-[(1-methylazetidin-3-yl)methyl]-[2,3′-bipyridine]-6-carboxamide]	< 0.01
CCOc1ncccc1-c1ccc(N2CCN(C(=O)OC3(CC)CCCC3)C[C@H]2CC)c(C(=O)N[C@@H]2CCN(C)C2)n1 [Compound 1-397, 1-ethylcyclopentyl (3R)-4-(2′-ethoxy-6-{[(3R)-1-methylpyrrolidin-3-yl]carbamoyl}-[2,3′-bipyridin]-5-yl)-3-ethylpiperazine-1-carboxylate]	< 0.01
CCOc1ncccc1-c1ccc(N2CCN(C(=O)c3ccc(Cl)cc3C(F)(F)F)C[C@H]2CC)c(C(=O)N[C@@H]2CN3CCC2CC3)n1 [Compound 1-398, N-[(3S)-1-azabicyclo[2.2.2]octan-3-yl]-5-[(2R)-4-[4-chloro-2-(trifluoromethyl)benzoyl]-2-ethylpiperazin-1-yl]-2′-ethoxy-[2,3′-bipyridine]-6-carboxamide]	< 0.01
CCOc1ccccc1-c1ccc(N2CCN(C(=O)C3(C(F)(F)F)CCCC3)C[C@H]2CC)c(C(=O)NC2CN(C)C2)n1 [Compound 1-399, 6-(2-ethoxyphenyl)-3-[(2R)-2-ethyl-4-[1-(trifluoromethyl)cyclopentanecarbonyl]piperazin-1-yl]-N-(1-methylazetidin-3-yl)pyridine-2-carboxamide]	< 0.01
CCOc1ncccc1-c1ccc(N2CCN(C(=O)C3(C(F)(F)F)CCCC3)C[C@H]2CC)c(C(=O)N[C@@H]2CN3CCC2CC3)n1 [Compound 1-400, N-[(3S)-1-azabicyclo[2.2.2]octan-3-yl]-2′-ethoxy-5-[(2R)-2-ethyl-4-[1-(trifluoromethyl)cyclopentanecarbonyl]piperazin-1-yl]-[2,3′-bipyridine]-6-carboxamide]	< 0.01
CCOc1ccccc1-c1ccc(N2CCN(C(=O)C3(C(F)(F)F)CCCC3)C[C@H]2CC)c(C(=O)N[C@H]2CCN(C)C2)n1 [Compound 1-401, 6-(2-ethoxyphenyl)-3-[(2R)-2-ethyl-4-[1-(trifluoromethyl)cyclopentanecarbonyl]piperazin-1-yl]-N-[(3S)-1-methylpyrrolidin-3-yl]pyridine-2-carboxamide]	< 0.01
CCOc1ccccc1-c1ccc(N2CCN(C(=O)N3CCc4cccc(C(F)(F)F)c43)C[C@H]2CC)c(C(=O)N[C@H]2CCN(C)C2)n1 [Compound 1-402, 6-(2-ethoxyphenyl)-3-[(2R)-2-ethyl-4-[7-(trifluoromethyl)-2,3-dihydro-1H-indole-1-carbonyl]piperazin-1-yl]-N-[(3S)-1-methylpyrrolidin-3-yl]pyridine-2-carboxamide]	< 0.01
CCOc1ncccc1-c1ccc(N2CCN(C(=O)O[C@@H](C(C)(C)C)C(F)(F)F)C[C@H]2CC)c(C(=O)N[C@@H]2CN3CCC2CC3)n1 [Compound 1-403, (2S)-1,1,1-trifluoro-3,3-dimethylbutan-2-yl (3R)-4-(6-{[(3S)-1-azabicyclo[2.2.2]octan-3-yl]carbamoyl}-2′-ethoxy-[2,3′-bipyridin]-5-yl)-3-ethylpiperazine-1-carboxylate; or (2R)-1,1,1-trifluoro-3,3-dimethylbutan-2-yl (3R)-4-(6-{[(3S)-1-azabicyclo[2.2.2]octan-3-yl]carbamoyl}-2′-ethoxy-[2,3′-bipyridin]-5-yl)-3-ethylpiperazine-1-carboxylate]	< 0.01
CCOc1ncccc1-c1ccc(N2CCN(C(=O)N3CCc4cccc(C#N)c43)C[C@H]2CC)c(C(=O)N[C@H]2CCN(C)C2)n1 [Compound 1-404, 5-[(2R)-4-(7-cyano-2,3-dihydro-1H-indole-1-carbonyl)-2-ethylpiperazin-1-yl]-2′-ethoxy-N-[(3S)-1-methylpyrrolidin-3-yl]-[2,3′-bipyridine]-6-carboxamide]	< 0.01
CCOc1ncccc1-c1ccc(N2CCN(C(=O)C3(C(F)(F)F)CCCC3)C[C@H]2CC)c(C(=O)NC23CCN(CC2)C3)n1 [Compound 1-405, N-{1-azabicyclo[2.2.1]heptan-4-yl}-2′-ethoxy-5-[(2R)-2-ethyl-4-[1-(trifluoromethyl)cyclopentanecarbonyl]piperazin-1-yl]-[2,3′-bipyridine]-6-carboxamide]	< 0.01
CCOc1ncccc1-c1ccc(N2CCN(C(=O)OC(c3ccccc3)C(C)(C)C)C[C@H]2CC)c(C(=O)N[C@@H]2CCN(C)C2)n1 (stereo partly drawn) [Compound 1-408, 2,2-dimethyl-1-phenylpropyl (3R)-4-(2′-ethoxy-6-{[(3R)-1-methylpyrrolidin-3-yl]carbamoyl}-[2,3′-bipyridin]-5-yl)-3-ethylpiperazine-1-carboxylate]	< 0.01
